{
  "source": "patent US20210127703A1",
  "about": "“FOOD PRODUCT USING AN IMPROVED SUGAR” (priority 2019, published 2021)",
  "origin": "cited, not measured here",
  "key": {"[1]": {"details": "after application of a dermal patch"}, "[2]": {"details": "in vivo"}, "[3]": {"details": "transdermal; higher than for Δ8-THC"}, "[4]": {"test_system": "liver microsomal drug-metabolizing enzymes", "details": "in vitro; inhibiting hexobarbital metabolism in humans"}, "[5]": {"test_system": "CYP 2C"}, "[6]": {"details": "ingestion of 20 mg of THC in a chocolate cookie"}},
  "data": [
    {"molecule": "CCCCCc1cc(O)c2c(c1)OC(C)(C)[C@@H]1CC=C(C)C[C@@H]21", "note": "[Δ8-THC]", "values": [
      {"measurement": "duration steady-state plasma concentration maintained", "setting": "[1]", "value": "at least 48 h"},
      {"measurement": "mean steady-state plasma concentration", "setting": "[1]", "value": 4.4, "unit": "ng/mL"},
      {"measurement": "time to steady-state plasma concentration", "setting": "[1]", "value": "≤ 1.4", "unit": "h"}
    ]},
    {"molecule": "C=C(C)[C@@H]1CCC(C)=C[C@H]1c1c(O)cc(CCCCC)cc1O", "note": "[CBD, cannabidiol]", "values": [
      {"measurement": "excretion in the feces", "setting": "[2]", "value": "a large proportion of the dose is excreted unchanged in the feces"},
      {"measurement": "permeability relative to Δ8-THC", "setting": "[3]", "value": 10, "unit": "fold"},
      {"measurement": "inhibition of liver microsomal drug-metabolizing enzymes", "setting": "[4]", "value": "in vitro inhibitor of liver microsomal drug-metabolizing enzymes"},
      {"measurement": "effect of CBD on pharmacokinetics of THC", "setting": "[5]; Hunt et al., except for a slight slowing of metabolism of 11-OH-THC to THC-COOH", "value": "not affected"},
      {"measurement": "inhibition of hydroxylation of THC to 11-OH-THC catalyzed by CYP 2C", "setting": "[5]; oral THC alone compared to a THC and CBD preparation", "value": "only partially inhibited"}
    ]},
    {"molecule": "CCCCCc1cc(O)c2c(c1)OC(C)(C)c1ccc(C)cc1-2", "note": "[CBN]", "values": [
      {"measurement": "permeability relative to Δ8-THC", "setting": "[3]", "value": 10, "unit": "fold"}
    ]},
    {"molecule": "CCCCCc1cc(O)c2c(c1)OC(C)(C)[C@@H]1CCC(C)=C[C@@H]21", "note": "[THC]", "values": [
      {"measurement": "time of peak THC concentration following ingestion", "setting": "[6]", "value": "1 to 5", "unit": "h"}
    ]}
  ]
}
